Our source for the AUC values is patent US9062051B2, “Compounds and pharmaceutical compositions thereof for the treatment of proliferative disorders” (GALAPAGOS NV, priority 2014, dated 2015).

Usually AUC stands for the area under the concentration-time curve, a measure of exposure.

The series in a line: Pharmacokinetics in mice (exposure, AUC). In kind it is in vivo. The conditions noted are these: male, CD1, plasma, mouse, po. On the procedure: This study was performed with 42 naïve male CD1 mice (18-20 g, 4-5 weeks old). Mice are obtained from Janvier, Le Genest St Isle, France.
A controlled environment was maintained in the room with optimal conditions of approximately 15 air changes per hour, a temperature of 22±2 C, a relative humidity of 30-70% and a 12 hour light/12 hour dark cycle (nightlight during the night period).
Pelleted diet for rodents (UAR A04C-10) was used and was provided ad libitum. Before p.o. dosing, the animals are deprived of food for at least 12 hours before compound administration and 4 hours after administration. All animals had free access to tap water.
[…] The i.v. bolus administration is given with a dose volume of 5 mL/kg and the oral administration is given with a dose volume of 10 mL/kg. Actual dose volumes are based on the mean of 10 body weights.
The vehicle used to formulate compounds for oral administration is methylcellulose in water (0.5% in water)
From all animals approximately 500 μL blood samples are collected by intra-cardiac puncture under gaseous anesthesia and placed into tubes containing Li-heparin as anticoagulant. Blood samples are collected at various time points (i.v.: 0.05, 0.25, 0.5, 1, 3, 5 and 8 hours after dosing; p.o.: 0.25, 0.5, 1, 3, 5, 8 and 24 hours after dosing). Each mouse is sampled once and euthanized.
Blood is kept on ice. Within 1 hour after sampling, blood is centrifuged at 5,000 rpm for 10 min at 4° C. Immediately after centrifugation, the resulting plasma samples are collected into polypropylene tubes and are kept frozen at −20° C. pending bioanalysis.
Plasma samples are assayed by LC-MS/MS. Plasma proteins are precipitated with an excess of methanol containing the internal standard and the corresponding supernatant is injected on a C18 column. Analytes are eluted out the HPLC system by increasing the percentage of the organic mobile phase. An API4000 mass spectrometer (AB Sciex™) is used for the detection and quantification.
Pharmacokinetic parameters are calculated by non-compartmental analysis using WinNonlin® software (Pharsight, version 5.2).

Compound `Cc1ccc(NC(=O)c2cccc(C(F)(F)F)c2)cc1-c1ccc2c([C@H](C)O)n[nH]c2n1` [Compound 55, N-{3-[3-((S)-1-Hydroxy-ethyl)-1H-pyrazolo[3,4-b]pyridin-6-yl]-4-methyl-phenyl}-3-trifluoromethyl-benzamide] gave an exposure (AUC) (5 mg/kg) of 851 ng·h/mL and an exposure (AUC) (30 mg/kg) of 31600 ng·h/mL.
The compound `Cc1ccc(NC(=O)c2cccc(C(F)(F)F)c2)cc1-c1cc(C)c2c(N)n[nH]c2n1` [Compound A, N-(3-(3-amino-4-methyl-1H-pyrazolo[3,4-b]pyridin-6-yl)-4-methylphenyl)-3-(trifluoromethyl)benzamide] came in with an exposure (AUC) (30 mg/kg) of 1130 ng·h/mL.
